Assay results published in ChEMBL document CHEMBL4371082.
Activity calls are given as the source filed them.

Assays:
[1] = Antioxidant activity assessed as ABTS radical scavenging activity at 20 uM measured at 30 sec interval over 60 mins; format: functional
[2] = Antioxidant activity assessed as DPPH free radical scavenging activity at 20 uM; format: functional
[3] = test system: Saccharomyces cerevisiae; assay: Protection against copy of c-myc-tagged human bax gene induced oxidative stress in yeast BC300 assessed as reactive oxygen species level in SG liquid medium by dihydroethidium dye based fluorescence assay; format: functional, organism-based
[4] = test system: Saccharomyces cerevisiae; assay: Protection against copy of c-myc-tagged human bax gene induced mitochondrial dysfunction in yeast BC300 assessed as prevention of mitochondrial membrane potential loss in SG liquid medium by JC-10 dye based fluorescence assay; format: functional, organism-based
[5] = test system: Saccharomyces cerevisiae; assay: Protection against 3-copies of HA-tagged human alpha-syn gene induced mitochondrial dysfunction in yeast BC300 assessed as prevention of mitochondrial membrane potential loss in SG solid agar medium by JC-10 dye based fluorescence assay; format: functional, organism-based
[6] = test system: Saccharomyces cerevisiae; assay: Protection against 3-copies of HA-tagged human alpha-syn gene induced oxidative stress in yeast BC300 assessed as reduction in reactive oxygen species level in SG solid agar medium by dihydroethidium dye based fluorescence assay; format: functional, organism-based

Measured: Activity

O=C1O[C@H]([C@@H](O)CO)C(O)=C1O
active: [1] | [2]

COc1ccc([C@@H](O)CNC(=O)/C=C/c2ccccc2)cc1
active: all assays above
